Test results as given in patent publication US7138411B2, “Substituted benzopyran derivatives for the treatment of inflammation” (G.D. Searle & Co., priority 1997, dated 2006).
Counter-ions that a name gives are not always drawn.

Compound	melting point [°C]
O=C(O)C1=C(c2cccs2)c2cc(Cl)ccc2OC1C(F)(F)F (stereo not shown) [Example 144, 6-Chloro-4-(2-thienyl)-2-(trifluoromethyl)-2H-1-benzopyran-3-carboxylic acid]	200.8 to 206.7
CCc1cccc2c1OC(C(F)(F)F)C(C(=O)O)=C2 (stereo not shown) [Example 28, 8-Ethyl-2-trifluoromethyl-2H-1-benzopyran-3-carboxylic acid]	185.4 to 186.8
O=C(O)C1=Cc2cc(Cl)c(Oc3ccccc3Cl)cc2OC1C(F)(F)F (stereo not shown) [Example 204, 6-Chloro-7-(2-chlorophenoxy)-2-(trifluoromethyl)-2H-1-benzopyran-3-carboxylic acid]	199 to 199.1
CC(C)(C)c1ccc2c(c1)C=C(C(=O)O)C(C(F)(F)F)O2 (stereo not shown) [Example 89, 6-(1,1-Dimethylethyl)-2-(trifluoromethyl)-2H-1-benzopyran-3-carboxylic acid]	170.6 to 173.2
CC(C)(C)C#Cc1cc(Cl)cc2c1OC(C(F)(F)F)C(C(=O)O)=C2 (stereo not shown) [Example 121, 6-Chloro-8-(3,3-dimethyl-1-butynyl)-2-(trifluoromethyl)-2H-1-benzopyran-3-carboxylic acid]	218.3 to 222.4
CSc1ccc(-c2cc(Cl)cc3c2OC(C(F)(F)F)C(C(=O)O)=C3)cc1 (stereo not shown) [Example 127, 6-Chloro-8-[(4-methylthio)phenyl]-2-(trifluoramethyl)-2H-1-benzopyran-3-carboxylic acid]	211.4 to 212.5
O=Cc1cc(Cl)cc2c1OC(C(F)(F)F)C(C(=O)O)=C2 (stereo not shown) [Example 76, 6-Chloro-8-Formyl-2-(trifluoromethyl)-2H-1-benzopyran-3-carboxylic acid]	243.3 to 252.4
O=C(O)C1=Cc2cc(Cl)cc(-c3nc4ccccc4[nH]3)c2OC1C(F)(F)F (stereo not shown) [Example 110, 8-(1H-Benzimidazol-2-yl)-6-chloro-2-(trifluoromethyl)-2H-1-benzopyran-3-carboxylic acid]	> 300
COc1c(Cl)cc2c(c1Cl)OC(C(F)(F)F)C(C(=O)O)=C2 (stereo not shown) [Example 61, 6,8-Dichloro-7-methoxy-2-trifluoromethyl-2H-1-benzopyran-3-carboxylic acid]	195.6 to 199.1
O=C(O)C1=Cc2c(Cl)ccc(Cl)c2OC1C(F)(F)F (stereo not shown) [Example 87, 5,8-Dichloro-2-(trifluoromethyl)-2H-1-benzopyran-3-carboxylic acid]	205.7 to 207.1
O=C(O)C1=Cc2cc(S(=O)(=O)NCc3ccco3)ccc2OC1C(F)(F)F (stereo not shown) [Example 69, 6-[[(2-Furanylmethyl)amino]sulfonyl]-2-(trifluoromethyl)-2H-1-benzopyran-3-carboxylic acid]	170 to 173
O=C(O)C1=Cc2cc(S(=O)(=O)NCCc3ccccc3)ccc2OC1C(F)(F)F (stereo not shown) [Example 71, 6-[[(Phenylethyl)amino]sulfonyl]-2-(trifluoromethyl)-2H-1-benzopyran-3-carboxylic acid]	187 to 190
O=C(O)C1=Cc2cc(Cl)cc(C#Cc3ccc(Cl)cc3)c2OC1C(F)(F)F (stereo not shown) [Example 122, 6-Chloro-8-[(4-chlorophenyl)ethynyl]-2-(trifluoromethyl)-2H-1-benzopyran-3-carboxylic acid]	210.4 to 211.4
O=C(O)C1=Cc2cc(-c3ccc(F)cc3)ccc2OC1C(F)(F)F (stereo not shown) [Example 131, 6-(4-Fluorophenyl)-2-(trifluoromethyl)-2H-1-benzopyran-3-carboxylic acid]	207 to 210
CCc1ccc2c(c1)OC(C(F)(F)F)C(C(=O)O)=C2 (stereo not shown) [Example 85, 7-Ethyl-2-trifluoromethyl-2H-1-benzopyran-3-carboxylic acid]	167 to 168.6
O=C(O)C1=Cc2cc(-c3ccc(Cl)cc3)ccc2OC1C(F)(F)F (stereo not shown) [Example 137, 6-(4-Chlorophenyl)-2-(trifluoromethyl)-2H-1-benzopyran-3-carboxylic acid]	212 to 213
CC(C)(C)c1cc2c(cc1Br)C=C(C(=O)O)C(C(F)(F)F)O2 (stereo not shown) [Example 77, 6-Bromo-7-(1,1-dimethylethyl)-2-(trifluoromethyl)-2H-1-benzopyran-3-carboxylic acid]	198.6 to 199.9
Cc1cccc2c1SC(C(F)(F)F)C(C(=O)O)=C2 (stereo not shown) [Example 150, 8-Methyl-2-(trifluoromethyl)-2H-1-benzothiopyran-3-carboxylic acid]	224 to 225
Cc1ccc2c(c1)SC(C(F)(F)F)C(C(=O)O)=C2 (stereo not shown) [Example 148, 7-Methyl-2-(trifluoromethyl)-2H-1-benzothiopyran-3-carboxylic acid]	186.6 to 191.9
Cc1ccc2c(c1)C=C(C(=O)O)C(C(F)(F)F)S2 (stereo not shown) [Example 145, 6-Methyl-2-(trifluoromethyl)-2H-1-benzothiopyran-3-carboxylic acid]	180.8 to 184.2
O=C(O)C1=Cc2cc3c(cc2OC1C(F)(F)F)OCO3 (stereo not shown) [Example 92, 6-(Trifluoromethyl)-6H-1,3-dioxolo[4,5-g][1]benzopyran-7-carboxylic acid]	245.8 to 247.8
CCCC#Cc1cc(Cl)cc2c1OC(C(F)(F)F)C(C(=O)O)=C2 (stereo not shown) [Example 119, 6-Chloro-8-(1-pentynyl)-2-(trifluoromethyl)-2H-1-benzopyran-3-carboxylic acid]	168.1 to 171.2

Compound	melting point [°C]
O=C(O)C1=Cc2ccc(C(F)(F)F)cc2OC1C(F)(F)F (stereo not shown) [Example 4, 2,7-bis(Trifluoromethyl)-2H-1-benzopyran-3-carboxylic acid]	190.3 to 193.5
O=C(O)C1=Cc2cc(Cl)ccc2N(Cc2ccc(C(F)(F)F)cc2)C1C(F)(F)F (stereo not shown) [Example 166, 6-Chloro-1,2-dihydro-2-(trifluoromethyl)-1-[[4-(trifluoromethyl)phenyl]methyl]-3-quinolinecarboxylic acid]	229 to 231
O=C(O)C1=Cc2ccc(Cl)c(Cl)c2OC1C(F)(F)F (stereo not shown) [Example 19, 7,8-Dichloro-2-trifluoromethyl-2H-1-benzopyran-3-carboxylic acid]	219.5 to 220.9
O=C(O)C1=C(c2ccccc2)c2cc(Cl)ccc2OC1C(F)(F)F (stereo not shown) [Example 143, 6-Chloro-2-(trifluoromethyl)-4-phenyl-2H-1-benzopyran-3-carboxylic acid]	225.5 to 226.6
CCN(CC)c1ccc2c(c1)OC(C(F)(F)F)C(C(=O)O)=C2 (stereo not shown) [Example 48, 7-(N,N-Diethylamino)-2-trifluoromethyl-2H-1-benzopyran-3-carboxylic acid]	214.4 to 215.4
CC(C)c1cccc2c1OC(C(F)(F)F)C(C(=O)O)=C2 (stereo not shown) [Example 102, 8-(1-Methylethyl)-2-trifluoromethyl-2H-1-benzopyran-3-carboxylic acid]	210.5 to 211.5
O=C(O)C1=Cc2cc(-c3cccs3)ccc2OC1C(F)(F)F (stereo not shown) [Example 136, 6-(2-thienyl)-2-(trifluoromethyl)-2H-1-benzopyran-3-carboxylic acid]	209 to 212
O=C(O)C1=Cc2cc([N+](=O)[O-])ccc2OC1C(F)(F)F (stereo not shown) [Example 37, 6-Nitro-2-trifluoromethyl-2H-1-benzopyran-3-carboxylic acid]	187 to 189
O=C(O)C1=Cc2cc(F)c(F)cc2NC1C(F)(F)F (stereo not shown) [Example 159, 6,7-Difluoro-1,2-dihydro-2-(trifluoromethyl)-3-quinolinecarboxylic acid]	186.6 to 188.9
O=C(O)C1=Cc2ccc3ccccc3c2OC1C(F)(F)F (stereo not shown) [Example 62, 2-Trifluoromethyl-2H-naphtho[1,2-b]pyran-3-carboxylic acid]	245.9 to 248.6
N#Cc1ccc(CN2c3ccc(Cl)cc3C=C(C(=O)O)C2C(F)(F)F)cc1 (stereo not shown) [Example 169, 6-Chloro-1-[(4-cyanophenyl)methyl]-1,2-dihydro-2-(trifluoromethyl)-3-quinolinecarboxylic acid]	258 to 260
CC(C)(C)CC(=O)c1ccc2c(c1)C=C(C(=O)O)C(C(F)(F)F)O2 (stereo not shown) [Example 60, 6-(2,2-Dimethylpropylcarbonyl)-2-trifluoromethyl-2H-1-benzopyran-3-carboxylic acid]	198 to 200
O=C(O)C1=Cc2cc(Cl)cc(-c3ccco3)c2OC1C(F)(F)F (stereo not shown) [Example 117, 6-Chloro-8-(2-furanyl)-2-(trifluoromethyl)-2H-1-benzopyran-3-carboxylic acid]	171.5 to 173.3
O=C(O)C1=Cc2cc(Cl)cc(C#CCCCCl)c2OC1C(F)(F)F (stereo not shown) [Example 118, 6-Chloro-8-(5-chloro-1-pentynyl)-2-(trifluoromethyl)-2H-1-benzopyran-3-carboxylic acid]	154.4 to 156.4
N#Cc1cc(Cl)cc2c1OC(C(F)(F)F)C(C(=O)O)=C2 (stereo not shown) [Example 107, 6-Chloro-8-cyano-2-(trifluoromethyl)-2H-1-benzopyran-3-carboxylic acid]	238.1 to 239.7
CC(C)Oc1ccc2c(c1)OC(C(F)(F)F)C(C(=O)O)=C2 (stereo not shown) [Example 20, 7-Isopropyloxy-2-trifluoromethyl-2H-1-benzopyran-3-carboxylic acid]	161 to 163
O=C(O)C1=Cc2cc(Cl)c(Oc3cccc(C(=O)O)c3)cc2OC1C(F)(F)F (stereo not shown) (as salt: potassium) [Example 208, 7-(3-Carboxyphenoxy)-6-chloro-2-(trifluoromethyl)-2H-1-benzopyran-3-carboxylic acid]	288.1 to 289.2
O=C(O)C1=Cc2cc(Oc3ccc(Cl)cc3)cc(Cl)c2OC1C(F)(F)F (stereo not shown) [Example 100]	227.8 to 228.9
O=C(O)C1=Cc2ccccc2SC1C(F)(F)F (stereo not shown) [Example 151, 2-(Trifluoromethyl)-2H-1-benzothiopyran-3-carboxylic acid]	187 to 190
O=C(O)C1=Cc2cc(Cl)cnc2NC1C(F)(F)F (stereo not shown) [Example 174, 6-Chloro-2-(triflouromethyl)-1,2-dihydro[1,8]napthyridine-3-carboxylic acid]	287.4 to 288.4
O=C(O)C1=Cc2cc(F)cc(Cl)c2OC1C(F)(F)F (stereo not shown) [Example 133, 8-Chloro-6-fluoro-2-(trifluoromethyl)-2H-1-benzopyran-3-carboxylic acid]	240 to 241
